Measured values taken from patent publication US10800792B2, “Inhibitors of Bruton's tyrosine kinase and method of their use” (JANSSEN PHARMACEUTICA NV, priority 2015, dated 2020).

Molecular target: unphosphorylated-BTK kinase domain (UP-BTK), GST-tagged human BTK (389-659aa) (Homo sapiens (Human), UniProt Q06187)
Assay: BTK kinase Lanthascreen binding assay
Conditions: pIC50 = negative log of the IC50 in molar
How it was run: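 Lanthascreen competition binding; test compound vs fluorescent tracer on unphosphorylated BTK. Output: pIC50 (−log IC50, M).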

[1] = unphosphorylated-BTK kinase domain, 50 nM Tracer 236, 60 minutes
[2] = 60 minutes incubation, 50 nM Tracer 236
[3] = Lanthascreen tracer competition, 60 minutes incubation

Sequence of unphosphorylated-BTK kinase domain (UP-BTK), GST-tagged human BTK (389-659aa) (Q06187 389-659): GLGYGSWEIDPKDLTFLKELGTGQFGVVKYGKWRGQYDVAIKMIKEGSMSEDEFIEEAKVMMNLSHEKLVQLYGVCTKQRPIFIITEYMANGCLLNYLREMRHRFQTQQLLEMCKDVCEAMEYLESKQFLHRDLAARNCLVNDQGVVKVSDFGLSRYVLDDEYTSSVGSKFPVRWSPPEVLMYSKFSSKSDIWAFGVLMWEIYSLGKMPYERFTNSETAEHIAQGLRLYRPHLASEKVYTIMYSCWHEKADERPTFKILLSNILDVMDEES

Cc1cc(Oc2ccccc2)cc(C)c1N1C(=O)Nc2c(C(=O)N[C@@H]3CCCN(C)C3)sc3nccc1c23 [Example 317, (R)-5-(2,6-Dimethyl-4-phenoxyphenyl)-N-(1-methylpiperidin-3-yl)-4-oxo-4,5-dihydro-3H-1-thia-3,5,8-triazaacenaphthylene-2-carboxamide]
BTK_I_binding pIC50 [1]: 5.8

C=CC(=O)N1CCC[C@@H](NC(=O)c2sc3nccc4c3c2NC(=O)N4c2cc(-c3ccccc3)ccn2)C1 [Example 526, (R)—N-(1-Acryloylpiperidin-3-yl)-4-oxo-5-(4-phenylpyridin-2-yl)-4,5-dihydro-3H-1-thia-3,5,8-triazaacenaphthylene-2-carboxamide]
BTK_I_binding pIC50 [1]: 7.6

Cc1cc(Oc2ccccc2)ccc1N1C(=O)Nc2c(C(=O)NC3CC[C@H](C)NC3)sc3nccc1c23 (mixture of isomers) [Example 153, 5-(2-Methyl-4-phenoxyphenyl)-N-((6S)-6-methylpiperidin-3-yl)-4-oxo-4,5-dihydro-3H-1-thia-3,5,8-triazaacenaphthylene-2-carboxamide]
BTK_I_binding pIC50 [2]: 6.8

Cc1c(Oc2ccccc2)ccc(N2C(=O)Nc3c(C(=O)N[C@@H]4CCCN(C)C4)sc4nccc2c34)c1C [Example 281, (R)-5-(2,3-Dimethyl-4-phenoxyphenyl)-N-(1-methylpiperidin-3-yl)-4-oxo-4,5-dihydro-3H-1-thia-3,5,8-triazaacenaphthylene-2-carboxamide]
BTK_I_binding pIC50 [2]: 6.2

CN(C)C/C=C/C(=O)N1CC[C@@H](NC(=O)c2sc3nccc4c3c2NC(=O)N4c2ccc(Oc3ccccc3)c(Cl)c2)C1 [Example 703, (R,E)-5-(3-Chloro-4-phenoxyphenyl)-N-(1-(4-(dimethylamino)but-2-enoyl)pyrrolidin-3-yl)-4-oxo-4,5-dihydro-3H-1-thia-3,5,8-triazaacenaphthylene-2-carboxamide]
BTK_I_binding pIC50 [3]: 7.8

Cc1cc(Oc2ccccc2)ccc1N1C(=O)Nc2c(C(=O)N[C@H]3CCCN(C(=O)/C(C#N)=C/C(C)(C)C)C3)sc3nccc1c23 [Example 904, (S,E)-N-(1-(2-Cyano-4,4-dimethylpent-2-enoyl)piperidin-3-yl)-5-(2-methyl-4-phenoxyphenyl)-4-oxo-4,5-dihydro-3H-1-thia-3,5,8-triazaacenaphthylene-2-carboxamide]
BTK_I_binding pIC50 (unphosphorylated-BTK kinase domain, 60 minutes incubation, 50 nM Tracer 236): 6.7

O=C(N[C@@H]1CCCNC1)c1sc2nccc3c2c1NC(=O)N3c1cccc(OC(F)(F)F)c1 [Example 620, (R)-4-Oxo-N-(piperidin-3-yl)-5-(3-(trifluoromethoxy)phenyl)-4,5-dihydro-3H-1-thia-3,5,8-triazaacenaphthylene-2-carboxamide]
BTK_I_binding pIC50 [3]: <6

Cc1ccccc1-c1cccc(N2C(=O)Nc3c(C(=O)N[C@@H]4CCCNC4)sc4nccc2c34)c1 [Example 554, (R)-5-(2′-Methyl-[1,1′-biphenyl]-3-yl)-4-oxo-N-(piperidin-3-yl)-4,5-dihydro-3H-1-thia-3,5,8-triazaacenaphthylene-2-carboxamide]
BTK_I_binding pIC50 [1]: 6.7

CC#CC(=O)N1CCC[C@@H](NC(=O)c2sc3nccc4c3c2NC(=O)N4c2ccc(Oc3ccccc3)cc2C)C1 [Example 42, (R)—N-(1-(But-2-ynoyl)piperidin-3-yl)-5-(2-methyl-4-phenoxyphenyl)-4-oxo-4,5-dihydro-3H-1-thia-3,5,8-triazaacenaphthylene-2-carboxamide]
BTK_I_binding pIC50 [2]: 7.0

CO[C@@H]1CNC[C@H](NC(=O)c2sc3nccc4c3c2NC(=O)N4c2ccc(Oc3ccccc3)cc2C)C1 (relative stereo) [Example 467, N-((3R,5S)-5-Methoxypiperidin-3-yl)-5-(*S)-(2-methyl-4-phenoxyphenyl)-4-oxo-4,5-dihydro-3H-1-thia-3,5,8-triazaacenaphthylene-2-carboxamide]
BTK_I_binding pIC50 [1]: 7.0

C=CC(=O)N1CCC[C@@H](NC(=O)c2sc3nccc4c3c2NC(=O)N4c2cnc(OC)nc2)C1 [Example 619, (R)—N-(1-Acryloylpiperidin-3-yl)-5-(2-methoxypyrimidin-5-yl)-4-oxo-4,5-dihydro-3H-1-thia-3,5,8-triazaacenaphthylene-2-carboxamide]
BTK_I_binding pIC50 [3]: <6
